Results as given in ChEMBL document CHEMBL1153825, “From a natural product lead to the identification of potent and selective benzofuran-3-yl-(indol-3-yl)maleimides as glycogen synthase kinase 3beta inhibitors that suppress proliferation and survival of pancreatic cancer cells” (J Med Chem, 2009).

Key:
[1] = system: HuP-T3; assay: Growth inhibition of human HUPT3 cells after 72 hrs by MTS assay; type: functional, cell-based; details: HuP-T3, 72 h
[2] = system: MIA PaCa-2; assay: Growth inhibition of human MIAPaCa2 cells after 72 hrs by MTS assay; type: functional, cell-based; details: MIA PaCa-2, 72 h
[3] = system: BXPC-3; assay: Growth inhibition of human BxPC3 cells after 72 hrs by MTS assay; type: functional, cell-based; details: BXPC-3, 72 h
[4] = biological target: Glycogen synthase kinase-3 beta (Homo sapiens, UniProt P49841); assay: Inhibition of human GSK3-beta by scintillation counting
[5] = biological target: T1, Cyclin-dependent kinase 2 (Homo sapiens, UniProt P24941)
[6] = biological target: RAC-gamma serine/threonine-protein kinase (Homo sapiens, UniProt Q9Y243); assay: Inhibition of AKT3 up to 50 uM
[7] = biological target: T2, Inhibitor of nuclear factor kappa-B kinase subunit alpha (Homo sapiens, UniProt O15111)
T2 sequence (O15111 whole entry): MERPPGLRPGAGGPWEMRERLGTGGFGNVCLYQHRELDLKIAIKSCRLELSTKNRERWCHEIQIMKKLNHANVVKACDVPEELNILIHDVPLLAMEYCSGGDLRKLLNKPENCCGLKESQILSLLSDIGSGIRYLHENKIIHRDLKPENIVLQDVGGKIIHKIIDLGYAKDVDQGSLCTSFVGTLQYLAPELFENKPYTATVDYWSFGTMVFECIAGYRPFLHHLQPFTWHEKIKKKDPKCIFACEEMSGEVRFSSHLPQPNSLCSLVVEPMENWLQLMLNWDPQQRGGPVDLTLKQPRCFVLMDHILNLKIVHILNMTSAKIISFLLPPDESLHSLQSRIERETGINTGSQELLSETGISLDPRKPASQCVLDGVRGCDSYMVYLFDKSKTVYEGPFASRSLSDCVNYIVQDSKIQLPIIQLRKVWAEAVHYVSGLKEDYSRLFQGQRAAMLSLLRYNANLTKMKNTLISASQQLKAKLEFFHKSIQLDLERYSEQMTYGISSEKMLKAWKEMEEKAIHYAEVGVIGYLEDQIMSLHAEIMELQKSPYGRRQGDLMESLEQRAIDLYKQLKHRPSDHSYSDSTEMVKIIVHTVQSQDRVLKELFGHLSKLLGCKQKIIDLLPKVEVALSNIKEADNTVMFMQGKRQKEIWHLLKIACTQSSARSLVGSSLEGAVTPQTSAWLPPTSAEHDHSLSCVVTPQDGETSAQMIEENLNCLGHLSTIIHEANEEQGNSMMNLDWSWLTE

[8] = biological target: Cyclin-dependent kinase 1/cyclin B1 (Homo sapiens, UniProt P06493); assay: Inhibition of CDK1/Cyclin B; type: protein-complex assay
[9] = biological target: Mitogen-activated protein kinase 3 (Homo sapiens, UniProt P27361); assay: Inhibition of ERK1 up to 50 uM
[10] = biological target: T3, Inhibitor of nuclear factor kappa-B kinase subunit beta (Homo sapiens, UniProt O14920); assay: Inhibition of IKK-beta up to 50 uM
T3 sequence (O14920 whole entry): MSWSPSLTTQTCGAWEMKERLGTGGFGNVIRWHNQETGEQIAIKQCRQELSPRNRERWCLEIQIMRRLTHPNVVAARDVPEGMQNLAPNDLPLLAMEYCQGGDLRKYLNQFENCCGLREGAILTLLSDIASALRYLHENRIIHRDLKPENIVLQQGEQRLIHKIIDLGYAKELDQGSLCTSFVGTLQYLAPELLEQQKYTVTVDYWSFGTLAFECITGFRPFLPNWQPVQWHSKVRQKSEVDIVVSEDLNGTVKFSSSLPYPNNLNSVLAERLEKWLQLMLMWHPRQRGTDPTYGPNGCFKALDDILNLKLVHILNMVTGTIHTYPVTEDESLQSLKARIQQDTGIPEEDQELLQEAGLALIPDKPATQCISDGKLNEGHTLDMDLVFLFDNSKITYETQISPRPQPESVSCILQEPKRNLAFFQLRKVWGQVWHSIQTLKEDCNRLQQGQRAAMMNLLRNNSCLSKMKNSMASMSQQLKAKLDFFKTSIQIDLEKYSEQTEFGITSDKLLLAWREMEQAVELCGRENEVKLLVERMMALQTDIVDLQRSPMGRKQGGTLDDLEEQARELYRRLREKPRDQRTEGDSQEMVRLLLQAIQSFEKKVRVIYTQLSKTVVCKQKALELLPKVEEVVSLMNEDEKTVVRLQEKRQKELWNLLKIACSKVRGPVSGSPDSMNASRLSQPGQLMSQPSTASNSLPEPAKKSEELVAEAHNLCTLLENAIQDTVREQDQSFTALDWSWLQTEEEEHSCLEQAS

[11] = biological target: RAF proto-oncogene serine/threonine-protein kinase (Homo sapiens, UniProt P04049); assay: Inhibition of cRAF up to 50 uM
[12] = biological target: T4, Serine/threonine-protein kinase Chk1 (Homo sapiens, UniProt O14757); assay: Inhibition of CHK1
T4 sequence (O14757 whole entry): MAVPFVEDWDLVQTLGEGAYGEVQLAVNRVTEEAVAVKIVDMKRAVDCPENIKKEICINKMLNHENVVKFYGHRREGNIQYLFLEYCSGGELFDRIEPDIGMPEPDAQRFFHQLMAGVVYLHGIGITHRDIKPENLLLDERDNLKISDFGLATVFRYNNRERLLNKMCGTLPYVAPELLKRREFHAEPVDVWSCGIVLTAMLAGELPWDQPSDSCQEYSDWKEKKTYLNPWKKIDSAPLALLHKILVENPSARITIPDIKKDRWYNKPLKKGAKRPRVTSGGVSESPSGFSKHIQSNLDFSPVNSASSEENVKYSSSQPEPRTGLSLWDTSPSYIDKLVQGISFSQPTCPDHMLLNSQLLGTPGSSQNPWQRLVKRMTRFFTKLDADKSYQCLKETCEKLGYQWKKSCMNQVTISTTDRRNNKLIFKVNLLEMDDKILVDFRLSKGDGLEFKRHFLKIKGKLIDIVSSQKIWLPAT

[13] = biological target: T1, Cyclin-dependent kinase 2; remark: listed apart in the source

Chain of Glycogen synthase kinase-3 beta (P49841 whole entry): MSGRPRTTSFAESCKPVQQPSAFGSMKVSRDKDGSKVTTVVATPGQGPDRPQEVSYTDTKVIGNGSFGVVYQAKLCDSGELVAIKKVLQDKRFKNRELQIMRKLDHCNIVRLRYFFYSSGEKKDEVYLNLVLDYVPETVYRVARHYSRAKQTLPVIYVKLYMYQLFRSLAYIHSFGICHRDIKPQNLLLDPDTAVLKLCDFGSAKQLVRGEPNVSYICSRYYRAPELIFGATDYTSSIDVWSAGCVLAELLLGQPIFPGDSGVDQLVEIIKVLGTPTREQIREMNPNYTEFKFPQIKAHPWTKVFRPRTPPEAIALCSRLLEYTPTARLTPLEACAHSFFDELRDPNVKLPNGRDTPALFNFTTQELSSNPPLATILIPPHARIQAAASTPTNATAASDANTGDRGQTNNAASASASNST
Chain of Cyclin-dependent kinase 1/cyclin B1 (P06493 whole entry): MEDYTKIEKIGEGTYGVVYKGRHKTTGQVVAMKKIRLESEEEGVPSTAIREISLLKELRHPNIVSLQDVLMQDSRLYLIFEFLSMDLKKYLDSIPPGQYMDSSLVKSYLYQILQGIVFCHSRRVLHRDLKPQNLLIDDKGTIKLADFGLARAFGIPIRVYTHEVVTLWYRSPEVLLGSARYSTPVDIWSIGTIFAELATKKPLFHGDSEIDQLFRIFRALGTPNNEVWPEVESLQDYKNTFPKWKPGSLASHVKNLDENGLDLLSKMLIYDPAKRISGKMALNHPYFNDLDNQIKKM
Chain of Cyclin-dependent kinase 1/cyclin B1 (P14635 whole entry, further chain): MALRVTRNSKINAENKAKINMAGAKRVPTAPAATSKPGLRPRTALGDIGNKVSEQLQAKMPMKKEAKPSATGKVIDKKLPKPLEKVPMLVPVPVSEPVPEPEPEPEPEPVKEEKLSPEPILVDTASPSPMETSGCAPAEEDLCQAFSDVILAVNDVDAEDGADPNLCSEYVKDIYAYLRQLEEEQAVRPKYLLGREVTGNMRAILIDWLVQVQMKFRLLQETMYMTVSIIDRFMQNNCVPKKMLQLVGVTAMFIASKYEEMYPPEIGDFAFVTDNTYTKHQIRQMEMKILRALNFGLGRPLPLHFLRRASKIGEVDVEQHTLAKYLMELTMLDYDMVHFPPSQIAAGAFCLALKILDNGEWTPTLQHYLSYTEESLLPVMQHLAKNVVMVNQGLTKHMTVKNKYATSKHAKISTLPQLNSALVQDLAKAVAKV
Chain of RAC-gamma serine/threonine-protein kinase (Q9Y243 whole entry): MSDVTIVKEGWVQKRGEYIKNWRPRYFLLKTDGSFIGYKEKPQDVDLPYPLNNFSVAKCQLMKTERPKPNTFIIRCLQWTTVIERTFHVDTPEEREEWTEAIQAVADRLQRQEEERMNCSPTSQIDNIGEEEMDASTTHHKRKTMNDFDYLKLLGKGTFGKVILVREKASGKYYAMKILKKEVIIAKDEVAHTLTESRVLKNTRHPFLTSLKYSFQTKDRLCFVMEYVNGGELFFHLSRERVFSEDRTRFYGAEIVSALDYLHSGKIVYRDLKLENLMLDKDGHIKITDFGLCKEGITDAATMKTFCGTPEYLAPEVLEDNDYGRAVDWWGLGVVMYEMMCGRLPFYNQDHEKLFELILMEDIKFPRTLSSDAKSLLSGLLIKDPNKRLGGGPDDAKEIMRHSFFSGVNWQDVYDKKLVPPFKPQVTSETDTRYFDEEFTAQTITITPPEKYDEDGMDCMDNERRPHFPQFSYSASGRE
Chain of Mitogen-activated protein kinase 3 (P27361 whole entry): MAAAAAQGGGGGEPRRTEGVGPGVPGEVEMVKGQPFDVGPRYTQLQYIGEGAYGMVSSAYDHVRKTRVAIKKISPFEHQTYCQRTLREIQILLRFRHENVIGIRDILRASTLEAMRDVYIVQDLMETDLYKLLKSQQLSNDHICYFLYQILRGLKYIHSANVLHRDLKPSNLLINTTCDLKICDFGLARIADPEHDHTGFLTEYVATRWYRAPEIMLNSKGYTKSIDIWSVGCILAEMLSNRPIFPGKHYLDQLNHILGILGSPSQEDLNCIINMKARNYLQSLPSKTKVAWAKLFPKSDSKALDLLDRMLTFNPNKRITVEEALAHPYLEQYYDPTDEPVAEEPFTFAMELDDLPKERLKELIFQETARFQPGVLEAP
Chain of RAF proto-oncogene serine/threonine-protein kinase (P04049 whole entry): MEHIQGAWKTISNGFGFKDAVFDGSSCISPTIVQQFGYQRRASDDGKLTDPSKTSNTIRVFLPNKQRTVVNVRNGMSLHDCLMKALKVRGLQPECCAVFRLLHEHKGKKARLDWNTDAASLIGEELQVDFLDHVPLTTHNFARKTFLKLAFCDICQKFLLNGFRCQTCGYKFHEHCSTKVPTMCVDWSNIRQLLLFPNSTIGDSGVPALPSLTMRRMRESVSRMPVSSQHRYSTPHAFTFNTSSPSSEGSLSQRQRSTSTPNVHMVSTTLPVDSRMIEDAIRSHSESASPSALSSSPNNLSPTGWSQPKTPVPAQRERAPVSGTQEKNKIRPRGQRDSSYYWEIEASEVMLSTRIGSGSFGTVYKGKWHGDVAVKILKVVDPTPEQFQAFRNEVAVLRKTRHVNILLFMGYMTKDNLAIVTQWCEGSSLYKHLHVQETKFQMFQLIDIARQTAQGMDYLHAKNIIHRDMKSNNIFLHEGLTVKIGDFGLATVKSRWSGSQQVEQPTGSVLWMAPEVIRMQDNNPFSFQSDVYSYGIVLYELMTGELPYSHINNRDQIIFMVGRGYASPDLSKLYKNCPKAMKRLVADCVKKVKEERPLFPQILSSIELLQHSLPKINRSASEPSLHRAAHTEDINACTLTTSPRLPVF

| SMILES | IC50 [2] [µM] | IC50 [3] [µM] | IC50 [4] [µM] | IC50 [1] [µM] | further results |
| --- | --- | --- | --- | --- | --- |
| COc1ccc(CNC(=O)Nc2ncc([N+](=O)[O-])s2)cc1 | 29 | 14 |  | 22 |  |
| Cn1cc(C2=C(c3coc4ccc(F)cc34)C(=O)NC2=O)c2cc(C#CC3CC3)ccc21 | 34 | > 50 |  | > 50 |  |
| Cn1cc(C2=C(c3coc4cc(OCC5CCC5)ccc34)C(=O)NC2=O)c2cc(F)c(Cl)cc21 |  |  | 4.09 |  |  |
| Cn1cc(C2=C(c3coc4ccccc34)C(=O)NC2=O)c2cc(Br)ccc21 | 30 |  |  | 43 |  |
| Cn1cc(C2=C(c3coc4ccccc34)C(=O)NC2=O)c2cc(I)ccc21 |  |  | 0.0345 | > 50 |  |
| Cn1cc(C2=C(c3coc4ccc(F)cc34)C(=O)NC2=O)c2cc(Cl)ccc21 |  |  | 0.042 |  |  |
| COc1cccc2c(C3=C(c4cn(C)c5cc(I)c(F)cc45)C(=O)NC3=O)coc12 |  |  |  |  | IC50 [6]: Not Active; IC50 [7]: > 50 µM; IC50 [8]: > 50 µM; IC50 [9]: Not Active; IC50 [10]: Not Active; IC50 [11]: Not Active; IC50 [12]: > 50 µM; IC50 [13]: > 50 µM; IC50 [5]: > 50 µM |
| Cn1cc(C2=C(c3ccc(Cl)cc3Cl)C(=O)NC2=O)c2ccccc21 [SB-216763] | 25 |  |  |  |  |

Second part, led by results:

| IC50 [2] [µM] | IC50 [3] [µM] | IC50 [4] [µM] | SMILES | IC50 [1] [µM] | further results |
| --- | --- | --- | --- | --- | --- |
| 8 | 6 |  | COc1cccc2c(C3=C(c4cn(C)c5cc(C(F)(F)F)ccc45)C(=O)NC3=O)coc12 | 6 |  |
| > 50 | > 50 |  | COc1cc2c(C3=C(c4coc5ccccc45)C(=O)NC3=O)cn(C)c2cc1Cl | > 50 |  |
| 3 | 2 |  | Cn1cc(C2=C(c3coc4ccccc34)C(=O)NC2=O)c2cc(F)c(Cl)cc21 | 2 |  |
|  |  | 0.00051 | Cn1cc(C2=C(c3coc4cc(CO)ccc34)C(=O)NC2=O)c2cc(Br)ccc21 |  |  |
|  |  | 1.29 | Cn1cc(C2=C(c3coc4cc(OCC5CC5)ccc34)C(=O)NC2=O)c2cc(F)c(Cl)cc21 |  |  |
| > 50 | > 50 |  | COCc1cccc2c(C3=C(c4coc5ccccc45)C(=O)NC3=O)cn(C)c12 |  |  |
| 17 | 7 |  | Cn1cc(C2=C(c3coc4cc(F)c(F)cc34)C(=O)NC2=O)c2ccc3ccccc3c21 | 6 |  |
|  |  | 0.0075 | COc1cccc2c(C3=C(c4cn(C)c5ccc(Br)cc45)C(=O)NC3=O)coc12 |  | IC50 [5]: 1.16 µM |
|  |  | 0.87 | COc1ccc2c(C3=C(c4cn(C)c5cc(Cl)c(F)cc45)C(=O)NC3=O)coc2c1 |  |  |
